Data reported in the supplement of paper PMC10307832.

Assays:
Experiment in all cases: relative viability (nuclei count vs DMSO), 5 days (fraction); higher = more cells survive
[1] = compound: C1=CC(=CC=C1C2=CC(=C(S2)NC(=O)N)C(=O)N)F [TPCA-1] + CCNC(=O)c1noc(-c2cc(C(C)C)c(O)cc2O)c1-c1ccc(CN2CCOCC2)cc1 [Luminespib] (partner 0.01 µM)
In short: (§1)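 Values are medians from duplicate plates. Each reflects relative viability, defined as the nuclei count of treated wells over that of vehicle wells. Lung cancer cell lines in 1536-well plates were pin-tool dosed one day after seeding with one drug alone or with a fixed anchor-drug dose plus five library-drug doses (not always all listed) in √10 steps, then fixed, stained and imaged at 4× after 5 days.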

[2] = compound: C1=CC(=CC=C1C2=CC(=C(S2)NC(=O)N)C(=O)N)F [TPCA-1] + CS(=O)(=O)N1CCN(Cc2cc3nc(-c4cccc5[nH]ncc45)nc(N4CCOCC4)c3s2)CC1 [Pictilisib] (partner 1 µM)
In short: as §1

[3] = compound: C1/C(=C\C2=CC=CS2)/C(=O)/C(=C/C3=CC=CS3)/C1 + CC1(C)CCC(c2ccc(Cl)cc2)=C(CN2CCN(c3ccc(C(=O)NS(=O)(=O)c4ccc(N[C@H](CCN5CCOCC5)CSc5ccccc5)c(S(=O)(=O)C(F)(F)F)c4)cc3)CC2)C1 [Navitoclax] (partner 0.5 µM)
In short: as §1

| Cell Line | relative viability ([1]; first compound 0.04 µM) | relative viability ([1]; first compound 0.1265 µM) | relative viability ([1]; first compound 0.4 µM) | relative viability ([1]; first compound 1.265 µM) | relative viability ([1]; first compound 4 µM) | relative viability ([2]; first compound 0.04 µM) | relative viability ([2]; first compound 0.1265 µM) | relative viability ([2]; first compound 0.4 µM) | relative viability ([2]; first compound 1.265 µM) | relative viability ([2]; first compound 4 µM) | relative viability ([3]; first compound 0.2 µM) | relative viability ([3]; first compound 0.6325 µM) | relative viability ([3]; first compound 2 µM) | relative viability ([3]; first compound 6.325 µM) | relative viability ([3]; first compound 20 µM) |
| --- | --- | --- | --- | --- | --- | --- | --- | --- | --- | --- | --- | --- | --- | --- | --- |
| 201T | 1.1 | 1.07 | 1.07 | 1.05 | 0.967 | 0.733 | 0.66 | 0.687 | 0.663 | 0.632 | 1.24 | 1.17 | 1.27 | 1.13 | 1.2 |
| A549 |  |  |  |  |  | 0.676 | 0.517 |  | 0.378 | 0.242 | 1.32 | 1.33 | 1.24 | 1.02 | 1.19 |
| A-427 | 1.01 | 0.873 | 0.935 | 0.902 | 0.637 | 0.756 | 0.591 | 0.687 | 0.626 | 0.164 | 1.03 | 1.02 | 0.982 | 0.852 | 0.92 |
| ABC-1 | 1.24 | 0.477 | 0.34 | 0.665 | 0.47 | 0.82 | 0.479 | 0.672 | 0.429 | 0.524 |  |  |  |  |  |
| BEN | 0.329 | 0.358 | 0.405 | 0.492 | 0.191 | 0.663 | 0.449 | 0.516 | 0.789 | 0.441 | 0.0742 | 0.059 | 0.368 | 0.0733 | 0.0554 |
| CAL-12T | 0.462 | 0.351 | 0.196 | 0.294 | 0.194 | 0.283 | 0.438 | 0.507 | 0.224 | 0.162 | 1.31 | 1.35 | 1.35 | 0.844 | 1.05 |
| COR-L23 | 0.682 | 0.602 | 0.762 | 0.625 | 0.381 | 0.964 | 0.671 | 0.829 | 0.716 | 0.438 | 1.06 | 1.09 | 1.02 | 0.864 | 0.967 |
| COR-L 105 | 0.782 | 0.658 | 0.766 | 0.738 | 0.648 | 0.475 | 0.364 | 0.463 | 0.306 | 0.248 | 0.623 | 0.772 | 0.79 | 0.737 | 0.701 |
| Calu-6 |  |  |  |  |  | 0.954 | 0.841 | 0.946 | 0.785 | 0.469 | 0.855 | 0.848 | 0.91 | 0.811 | 0.857 |
| ChaGo-K-1 | 0.766 | 0.689 | 0.698 | 0.453 | 0.302 | 0.624 | 0.704 | 0.805 | 0.748 | 0.334 | 1.01 | 0.964 | 1.11 | 0.698 | 0.727 |
| EBC-1 |  |  |  |  |  | 0.462 | 0.421 | 0.466 | 0.474 | 0.362 | 0.439 | 0.469 | 0.478 | 0.398 | 0.497 |
| EKVX | 0.885 | 0.845 | 0.933 | 0.756 | 0.809 | 0.405 | 0.343 | 0.512 | 0.374 | 0.43 | 0.999 | 0.87 | 0.916 | 0.912 | 0.919 |
| HCC-78 |  |  |  |  |  | 0.242 | 0.194 | 0.21 | 0.203 | 0.103 | 0.81 | 0.786 | 0.82 | 0.682 | 0.782 |
| HCC-366 |  |  |  |  |  | 0.182 | 0.13 | 0.177 | 0.117 | 0.124 | 1.09 | 1 | 0.955 | 1.05 | 1.05 |
| IA-LM |  |  |  |  |  | 0.319 | 0.339 | 0.417 | 0.376 | 0.404 | 0.938 | 0.925 | 0.88 | 0.565 | 0.704 |
| LCLC-103H | 0.97 | 0.99 | 0.852 | 0.965 | 0.752 | 0.659 | 0.593 | 0.553 | 0.587 | 0.656 |  |  |  |  |  |
| NCI-H358 | 0.286 | 0.366 | 0.279 | 0.266 | 0.125 | 0.309 | 0.272 | 0.349 | 0.335 | 0.236 |  |  |  |  |  |
| NCI-H522 | 1.13 | 0.946 | 1.22 | 1.15 | 0.84 |  |  |  |  |  |  |  |  |  |  |
| NCI-H650 | 0.858 | 0.788 | 0.849 | 0.499 | 0.328 | 0.928 | 0.864 | 1.03 | 0.538 | 0.787 |  |  |  |  |  |
| NCI-H661 | 0.973 | 0.934 | 0.962 | 0.846 | 0.806 | 0.467 | 0.325 | 0.452 | 0.347 | 0.321 |  |  |  |  |  |
| NCI-H1299 |  |  |  |  |  | 0.854 | 0.669 | 0.828 | 0.614 | 0.243 | 1.08 | 1.08 | 1.03 | 0.973 | 1.05 |
| NCI-H1563 | 0.522 | 0.601 | 0.521 | 0.532 | 0.451 | 0.671 | 0.633 | 0.63 | 0.661 | 0.611 |  |  |  |  |  |
| NCI-H1623 | 0.601 | 0.555 | 0.54 | 0.433 | 0.426 |  |  |  |  |  |  |  |  |  |  |
| NCI-H1703 |  |  |  |  |  | 0.263 | 0.284 | 0.259 |  | 0.213 | 1.3 | 1.8 | 1.32 | 1.05 | 1.14 |
| NCI-H2342 | 0.921 | 0.66 | 0.819 | 0.754 | 0.694 |  |  |  |  |  |  |  |  |  |  |
| SW 900 | 0.179 | 0.176 | 0.212 | 0.201 | 0.176 |  |  |  |  |  |  |  |  |  |  |
